Measurements as given in article PMC5218480 (PLoS ONE, 2017).

Test system: MV-4-11 cells
Experiment: Gene expression microarray analysis (Affymetrix PrimeView) and GSEA
Assay type: cell-based, human
Settings: MV-4-11, 48 hours, 1 μM each

Nc1ccc(-c2cccs2)cc1NC(=O)c1ccc2c(c1)cc(C1CC1)n2CCN1CCOCC1 [ACY-1035]
genes down-regulated greater than 2-fold relative to vehicle control: 72 genes
